Structures can show the parent of a compound that is named as a salt.
These molecules were tested against T1, recombinant human baculovirus-expressed GST-tagged FASN (Homo sapiens, UniProt P49327) (assay: FASN enzyme activity assay, fluorescence-based detection of CoA with CPM). Conditions: 5 nM FASN, 150 μM NADPH, 10 μM acetyl-CoA, 25 μM malonyl-CoA, 90 minutes incubation; read-out: IC50 data for Additional Compounds of Formulae I-V(a): Activity.
T1 construct: GST
T1 sequence (P49327 whole entry): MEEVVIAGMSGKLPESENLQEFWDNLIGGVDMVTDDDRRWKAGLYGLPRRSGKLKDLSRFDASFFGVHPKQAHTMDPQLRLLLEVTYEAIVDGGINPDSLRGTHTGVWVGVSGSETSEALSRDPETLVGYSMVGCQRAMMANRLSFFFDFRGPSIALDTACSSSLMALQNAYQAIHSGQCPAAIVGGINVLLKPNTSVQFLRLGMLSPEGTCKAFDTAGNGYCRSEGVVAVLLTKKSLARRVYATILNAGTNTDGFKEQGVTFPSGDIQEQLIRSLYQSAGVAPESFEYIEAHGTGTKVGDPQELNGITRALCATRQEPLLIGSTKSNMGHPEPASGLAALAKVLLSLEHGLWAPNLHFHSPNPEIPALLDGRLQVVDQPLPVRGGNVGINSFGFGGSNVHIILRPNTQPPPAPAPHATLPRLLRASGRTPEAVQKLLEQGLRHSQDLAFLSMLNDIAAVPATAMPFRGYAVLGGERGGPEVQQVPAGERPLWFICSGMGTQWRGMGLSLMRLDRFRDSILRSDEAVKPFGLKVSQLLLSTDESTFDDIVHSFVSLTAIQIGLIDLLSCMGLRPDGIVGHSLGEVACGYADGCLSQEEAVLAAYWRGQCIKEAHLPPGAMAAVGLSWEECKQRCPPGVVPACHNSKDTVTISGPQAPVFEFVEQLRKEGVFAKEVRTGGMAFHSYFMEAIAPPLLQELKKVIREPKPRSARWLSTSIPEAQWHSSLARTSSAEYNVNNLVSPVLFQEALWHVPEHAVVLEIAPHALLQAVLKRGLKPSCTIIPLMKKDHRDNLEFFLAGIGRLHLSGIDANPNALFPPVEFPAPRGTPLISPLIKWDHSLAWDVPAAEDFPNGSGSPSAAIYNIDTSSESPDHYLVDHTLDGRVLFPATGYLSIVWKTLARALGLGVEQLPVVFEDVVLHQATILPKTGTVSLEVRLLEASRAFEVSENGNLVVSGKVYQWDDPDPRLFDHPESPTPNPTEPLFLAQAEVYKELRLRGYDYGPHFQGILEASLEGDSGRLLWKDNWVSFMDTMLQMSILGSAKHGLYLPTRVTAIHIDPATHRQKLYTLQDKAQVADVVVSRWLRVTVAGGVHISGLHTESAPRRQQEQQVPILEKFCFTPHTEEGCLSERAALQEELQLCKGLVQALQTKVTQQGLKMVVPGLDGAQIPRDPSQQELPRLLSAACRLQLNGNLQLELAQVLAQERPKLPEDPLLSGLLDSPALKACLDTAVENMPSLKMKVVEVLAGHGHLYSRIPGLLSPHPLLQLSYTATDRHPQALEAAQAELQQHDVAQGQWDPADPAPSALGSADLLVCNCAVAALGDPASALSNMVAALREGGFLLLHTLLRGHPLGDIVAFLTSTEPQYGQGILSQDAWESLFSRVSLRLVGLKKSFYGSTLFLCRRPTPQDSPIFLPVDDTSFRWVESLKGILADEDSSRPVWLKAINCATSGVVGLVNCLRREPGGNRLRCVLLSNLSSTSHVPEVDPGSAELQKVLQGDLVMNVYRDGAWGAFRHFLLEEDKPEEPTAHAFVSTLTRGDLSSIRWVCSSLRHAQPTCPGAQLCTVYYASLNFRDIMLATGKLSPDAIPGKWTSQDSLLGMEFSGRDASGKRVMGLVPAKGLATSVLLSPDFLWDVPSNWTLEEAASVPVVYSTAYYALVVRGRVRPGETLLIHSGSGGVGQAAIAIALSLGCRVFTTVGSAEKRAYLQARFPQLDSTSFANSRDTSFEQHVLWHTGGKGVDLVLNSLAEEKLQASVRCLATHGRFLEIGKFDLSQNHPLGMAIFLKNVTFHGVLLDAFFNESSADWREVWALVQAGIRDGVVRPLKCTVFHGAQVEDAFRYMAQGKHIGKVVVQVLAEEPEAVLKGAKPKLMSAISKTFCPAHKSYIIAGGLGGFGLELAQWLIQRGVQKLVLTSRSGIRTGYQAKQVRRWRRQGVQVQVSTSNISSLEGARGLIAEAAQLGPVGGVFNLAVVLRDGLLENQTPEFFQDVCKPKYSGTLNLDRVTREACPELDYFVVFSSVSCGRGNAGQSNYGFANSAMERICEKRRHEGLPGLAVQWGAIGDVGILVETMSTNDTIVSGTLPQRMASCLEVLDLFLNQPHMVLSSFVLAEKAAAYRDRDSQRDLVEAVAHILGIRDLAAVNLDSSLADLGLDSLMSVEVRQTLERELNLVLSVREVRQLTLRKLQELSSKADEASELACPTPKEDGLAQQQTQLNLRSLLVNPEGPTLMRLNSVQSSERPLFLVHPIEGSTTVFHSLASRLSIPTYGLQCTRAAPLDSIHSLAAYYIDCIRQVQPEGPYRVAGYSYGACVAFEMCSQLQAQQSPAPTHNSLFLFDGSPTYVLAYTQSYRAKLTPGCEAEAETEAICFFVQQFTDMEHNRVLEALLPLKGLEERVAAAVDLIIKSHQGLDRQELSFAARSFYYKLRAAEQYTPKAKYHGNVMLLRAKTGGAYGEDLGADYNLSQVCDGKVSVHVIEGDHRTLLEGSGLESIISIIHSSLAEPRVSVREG
Format: biochemical
Outline: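 Human GST-tagged FASN, baculovirus-expressed (5 nM), in 50 mM HEPES pH 7.5 with 150 μM NADPH, 10 μM acetyl-CoA, 25 μM malonyl-CoA, 0.5% DMSO; malonyl-CoA-started, 90 min. Released CoA detected with CPM (50 μM dilution), 30 min, fluorescence ex 390/em 530. IC50 from variable-slope sigmoidal fit of % inhibition versus log concentration.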
Work on Cc1c(-c2ccc(OC3CCN(C(=O)NCCc4c[nH]cn4)CC3)cc2)ccc2cccnc12 [Example 548, N-[2-(1H-Imidazol-4-yl)ethyl]-4-[4-(8-methyl-7-quinolyl)phenoxy]piperidine-1-carboxamide, 2HCl] yielded an IC50 of 1000 to 10000 nM.
COCCOC(=O)N1CCC(Oc2ccc(-c3ccc4cccnc4c3C)cc2)CC1 [Example 555, 2-Methoxyethyl 4-[4-(8-methyl-7-quinolyl)phenoxy]piperidine-1-carboxylate, HCl] showed an IC50 of 1000 to 10000 nM.
For CCONC(=O)N1CCC(Oc2ccc(-c3ccc4ccnn4c3C)cc2)CC1 [Example 538, N-Ethoxyoxy-4-[4-(7-methylpyrazolo[1,5-a]pyridin-6-yl)phenoxy]piperidine-1-carboxamide], the IC50 was 1 to 99 nM.
In the case of CNC1(C(=O)N2CCC(Oc3ccc(-c4ccc5cccnc5c4C)cc3)CC2)CC1 [Example 622, [1-(Methylamino)cyclopropyl]-[4-[4-(8-methyl-7-quinolyl)phenoxy]-1-piperidyl]methanone], the IC50 is reported as 1000 to 10000 nM.
Cc1c(-c2ccc(OC3CCN(C(=O)CN(C)C)CC3)cc2)ccc2cccnc12 [Example 614, 2-(Dimethylamino)-1-[4-[4-(8-methyl-7-quinolyl)phenoxy]-1-piperidyl]-ethanone] showed an IC50 of 1000 to 10000 nM.

Same assay, conditions: 5 nM FASN, 150 μM NADPH, 10 μM acetyl-CoA, 25 μM malonyl-CoA, 90 minutes incubation; read-out: IC50 data for Compounds of Formulae I-V/V(a): Activity
Molecule Cc1c(-c2ccc(O[C@@H]3CCN(C(=O)[C@@H]4CCCO4)C[C@H]3F)cc2)ccc2cccnc12 (racemic) [Example 372, {(trans)-3-Fluoro-4-[4-(8-methylquinolin-7-yl)-phenoxy]-piperidin-1-yl}-(R)-tetrahydrofuran-2-yl-methanone, HCl] has an IC50 of 1 to 99 nM.
With CCC(=O)N1CCC(Oc2ccc(-c3cc4ccccc4nc3OC)cc2)CC1 [Example 18, 1-{4-[4-(2-Methoxyquinolin-3-yl)-phenoxy]-piperidin-1-yl}-propan-1-one] the IC50 was 100 to 999 nM.
Molecule CC(C)C(=O)N1CCC(Oc2ccc(-c3cnc4ccccc4c3)c(Cl)c2)CC1 [Example 204, 1-[4-(3-Chloro-4-quinolin-3-yl-phenoxy)-piperidin-1-yl]-2-methyl-propan-1-one] has an IC50 of 100 to 999 nM.
Molecule Cc1cc(OC2CCN(C(=O)C(C)C)CC2)ccc1-c1cnc2ccccc2c1 [Example 206, 2-Methyl-1-[4-(3-methyl-4-quinolin-3-yl-phenoxy)-piperidin-1-yl]-propan-1-one] has an IC50 of 1000 to 10000 nM.
Molecule O=C(N1CCC(Oc2ccc(-c3ccn4cnnc4c3)cc2)CC1)C1(O)CC1 [Example 306, (1-Hydroxycyclopropyl)-[4-(4-[1,2,4]triazolo[4,3-a]pyridin-7-yl-phenoxy)-piperidin-1-yl]-methanone] has an IC50 of 1000 to 10000 nM.
In the case of Cc1c(-c2ccc(O[C@@H]3C[C@H]4CC[C@@H](C3)N4C(=O)[C@H]3CCCO3)cc2)ccc2cccnc12 [Example 360, {exo-3-[4-(8-Methylquinolin-7-yl)-phenoxy]-8-aza-bicyclo[3.2.1]oct-8-yl}-(R)-tetrahydrofuran-2-yl-methanone, HCl], the IC50 is reported as 100 to 999 nM.
CS(=O)(=O)N1CCC(Oc2ccc(-c3cnc4ccccc4c3)cc2)CC1 [Example 162, 3-[4-(1-Methanesulfonyl-piperidin-4-yloxy)-phenyl]-quinoline] showed an IC50 of 1000 to 10000 nM.
CN1CCN(c2nccc3cc(-c4ccc(OC5CCN(C(=O)[C@H]6CCCO6)CC5)cc4)ccc23)CC1 [Example 455] gave an IC50 of 1000 to 10000 nM.
Cc1c(-c2ccc(OC3CCN(C(=O)C(F)(F)F)CC3)cc2)ccc2cccnc12 [Example 357, 2,2,2-Trifluoro-1-{4-[4-(8-methyl-quinolin-7-yl)-phenoxy]-piperidin-1-yl}-ethanone] gave an IC50 of 1000 to 10000 nM.
Molecule Cc1ccc2ncccc2c1-c1ccc(OC2CCN(C(=O)C3CC3)CC2)cc1 [Example 351, Cyclopropyl(4-(4-(6-methylquinolin-5-yl)phenoxy)piperidin-1-yl)methanone, HCl] has an IC50 of 100 to 999 nM.
In the case of Cc1cccc2ncc(-c3ccc(OC4CCN(C(=O)[C@H]5CCCO5)CC4)cc3)cc12 [Example 462, {4-[4-(5-Methylquinolin-3-yl)-phenoxy]-piperidin-1-yl}-(R)-tetrahydro-furan-2-yl-methanone, HCl], the IC50 is reported as 1 to 99 nM.
With CCC(=O)N1CCC(C(=O)N(C)c2ccc(-c3ccc4cccnc4c3)cc2)CC1 [Example 150, 1-Propionyl-piperidine-4-carboxylic acid methyl-(4-quinolin-7-yl-phenyl)-amide] the IC50 was 100 to 999 nM.
For Cc1cc2cc(-c3ccc(OC4CCN(C(=O)[C@H]5CCCO5)CC4)cc3)ccc2cn1 [Example 437, {4-[4-(3-Methylisoquinolin-6-yl)-phenoxy]-piperidin-1-yl}-(R)-tetrahydro-furan-2-yl-methanone], the IC50 was 1 to 99 nM.
With O=C(C1CC1)N1CCC(Oc2ccc(-c3cnc4ccccc4c3)cc2)CC1 [Example 100, Cyclopropyl-[4-(4-quinolin-3-yl-phenoxy)-piperidin-1-yl]-methanone,HCl] the IC50 was 1 to 99 nM.
CC(C)C(=O)N1CCC(Oc2ccc(-c3ccc4cnccc4c3)nc2)CC1 [Example 148, 1-[4-(6-Isoquinolin-6-yl-pyridin-3-yloxy)-piperidin-1-yl]-2-methyl-propan-1-one, 2HCl] showed an IC50 of 1000 to 10000 nM.
COc1cc2cc(-c3ccc(OC4CCN(C(=O)C5CCC5)CC4)cc3)ccc2cn1 [Example 417, Cyclobutyl-{4-[4-(3-methoxyisoquinolin-6-yl)-phenoxy]-piperidin-1-yl}-methanone] showed an IC50 of 100 to 999 nM.
O=C(c1cccc(-c2nc3ccccc3[nH]2)c1)N1CCC(Oc2ccc(-c3cnc4ccccc4c3)cc2)CC1 [Example 130, [3-(1H-Benzimidazol-2-yl)-phenyl]-[4-(4-quinolin-3-yl-phenoxy)-piperidin-1-yl]-methanone, HCl] gave an IC50 of 1000 to 10000 nM.
CCC(=O)N1CCC(Oc2ccc(-c3ccc(Oc4ccccc4)cc3)cc2)CC1 [Example 508, 1-[4-(4′-Phenoxybiphenyl-4-yloxy)-piperidin-1-yl]-propan-1-one] was tested, and the IC50 was 1000 to 10000 nM.
Molecule O=C(C1CC1)N1CCC(Oc2ccc(-c3cnc4ccccc4c3)cn2)CC1 [Example 134, Cyclopropyl-[4-(5-quinolin-3-yl-pyridin-2-yloxy)-piperidin-1-yl]-methanone, HCl] has an IC50 of 1000 to 10000 nM.
Molecule CCC(=O)N1CCC(C(=O)N(C)c2ccc(-c3ccc4cnccc4c3)cc2)CC1 [Example 151, 1-Propionyl-piperidine-4-carboxylic acid (4-isoquinolin-6-yl-phenyl)-methylamide] has an IC50 of 100 to 999 nM.
CCC(=O)N1CCC(Oc2ccc(-c3cnc4ccccc4c3N3CCOCC3)cc2)CC1 [Example 237, 1-{4-[4-(4-Morpholin-4-yl-quinolin-3-yl)-phenoxy]-piperidin-1-yl}-propan-1-one] was tested, and the IC50 was 1000 to 10000 nM.
COc1c(-c2ccc(OC3CCN(C(=O)[C@H]4CCCO4)CC3)c(F)c2)ccc2cccnc12 [Example 221, {4-[2-Fluoro-4-(8-methoxyquinolin-7-yl)-phenoxy]-piperidin-1-yl}-(R)-tetrahydrofuran-2-yl-methanone] showed an IC50 of 1 to 99 nM.
COc1cc2ncc(-c3ccc(OC4CCN(C(=O)C5CC5)CC4)cc3)cc2cc1F [Example 445, Cyclopropyl-{4-[4-(6-fluoro-7-methoxyquinolin-3-yl)-phenoxy]-piperidin-1-yl}-methanone] showed an IC50 of 1000 to 10000 nM.
For CN(c1ccc(-c2cnc3ccccc3c2)cc1)C1CCN(C(=O)C2CC2)CC1 [Example 525, Cyclopropyl-{4-[methyl-(4-quinolin-3-yl-phenyl)-amino]-piperidin-1-yl}-methanone, HCl], the IC50 was 100 to 999 nM.
